Data on 2 substances can be found in US20220243211A1, “PEPTIDE NUCLEIC ACID COMPOSITIONS WITH MODIFIED HOOGSTEEN BINDING SEGMENTS AND METHODS OF USE THEREOF” (Yale University, priority 2019, published 2022).

Holding throughout (type): cell-based, human
Series [1] concerns F508 del CFTR in CFBE cells at ALI. The series is described as follows: Digital droplet PCR quantification of gene editing. Particulars: apical PNA/DNA NPs, 2 mg/dose, 3 doses. The method, then:
(§1) FIG. 5A is a Schematic of treatment of cells grown at ALI. FIG. 5B is a bar graph showing Ussing Chamber assay results. CFBE cells at ALI were treated apically at 2 mg/dose for 3 doses with 48 hours between each dose **p<0.001; ***p<0.002. FIG. 5C is a dot plot showing digital droplet (ddPCR) quantification of gene editing in genomic DNA isolated from CFBE cells at ALI treated apically at 2 mg/dose for 3 doses with 48 hours between each dose ***p<0.002.
Nanoparticles were suspended in culture media, vortexted, and sonicated in a water bath (30s) and added directly to cells. For cells treated on collagen-coated plastic in 12-well plates, the cells were treated at a concentration of 2 mg/mL. For cells treated in 6-well plates at ALI, the cells were treated apically with 250 uL of media containing 2 mg of particles. […]
gDNA was extracted from CFBE cells using the Wizard SV DNA Purification System (Promega, Madison, Wis.) according to manufacturer's instructions. The concentration of extracted gDNA samples was measured using a QuBit® dsDNA BR assay kit (Invitrogen, Carlsbad, Calif.) according to manufacturer's instructions. […] Droplets were allowed to rest at 4° C. for at least 30 minutes after cycling and were then read using the QX200™ Droplet Reader (Bio-Rad). Data were analyzed using QuantaSoft™ software. […]

Series [2] deals with F508del CFTR gene in CFBE cells. The series is described as follows: Allele-specific PCR for gene modification. Particulars: CFBE cells treated with PNA/donor DNA NPs. The procedure:
Genomic DNA was harvested from cells and purified using the Wizard Genomic DNA Purification kit (Promega, Madison Wis.). Equal amounts of genomic DNA from each sample were subjected to allele-specific PCR (ASPCR), with a gene-specific reverse primer, and an allele-specific forward primer. PCR was performed using a Eppendorf master cycler X50. PCR products were separated on a 1% agarose gel and visualized using a gel imager.
AS-PCR conditions are as follows. Platinum Taq polymerase (Invitrogen, Carlsbad Calif.) was used for PCR reactions: 5 uL betaine, 4.25 uL water, 2.5 uL 10× Platinum Taq PCR buffer, 1.25 uL 50 mM MgCl2, 0.5 uL dNTPs, 0.5 uL each primer at 10 uM, 0.5 uL Platinum Taq polymerase, and 10 uL of genomic DNA at 40 ng/uL. PCR cycler conditions for human CFTR were as follows: 95° C. 2 min, 94° C. 30 sec, 69° C. 1 min, 72° C. 1 min, 94° C. 30 sec, 68° C. 1 min, 72° C. 1 min, 94° C. 30 sec, 67° C. 1 min, 72° C. 1 min, 94° C. 30 sec, 66° C. 1 min, 72° C. 1 min, 94° C. 30 sec, 65° C. 1 min, 72° C. 1 min, [94° C. 30 sec, 65° C. 1 min, 72° C. 1 min]×35 cycles, 72° C. 2 min, hold at 4° C. 1.
Gene-specific reverse primer: (reverse complement starting from nt 80162): 5′ […]

Another series concerns CFBE cells at ALI. The series is described as follows: Ussing chamber assay, short circuit current. To be noted: apical PBAE/PLGA/MPG NPs, 2 mg/dose, 3 doses. The procedure: as §1
Ussing experiments were performed as previously described (Bruscia, et al., Proc Natl Acad Sci USA 103, 2965-2970 (2006)). An Easy Mount Ussing Chamber System (Physiologic Instruments) was heated to 37° C. Electrode tips were prepared by partial filling with 3% agar in 3M KCl and subsequently backfilling with a 3M KCl. The Ussing chambers are equipped with current and voltage electrodes loaded with these tips. […] The transepithelial voltage and membrane resistance was measured during each pulse. Under these conditions, short circuit current (Isc) was calculated using Ohm's Law at the timepoint wherein the basolateral chamber was filled with a chloride-free solution following 20 minutes of equilibration in Kreb's Bicarbonate Ringers. […]

In the case of “H-KKK-TJTJJTTT-OOO-TTTCCTCTATGGGTAAG-KKK-NH2 [γhCF PNA-h] (TNTNNTTTTTTCCTCTATGGGTAAG; listed as DNA, chemistry not fully specified) [tail clamp PNA targeting human CFTR gene with MPγ monomers in Hoogsteen domain]”, the “gene editing (ddPCR, fractional abundance of edited CFTR allele)” value in series [1] is given as −5%. The “gene modification by allele-specific PCR” value in series [2] is reported as “had the desired gene modification”. For the same substance, in the series with CFBE cells at ALI, the “Isc (short circuit current), cAMP stimulated” value is reported as “marked increase”.

Turning to “H-KKK-TJTJJTTT-OOO-TTTCCTCTATGGGTAAG-KKK-NH2 [hCF PNA] (TNTNNTTTTTTCCTCTATGGGTAAG; listed as DNA, chemistry not fully specified)”, the “gene editing (ddPCR, fractional abundance of edited CFTR allele)” value in series [1] is listed as “minimal correction”. For the same substance, in series [2], the “gene modification by allele-specific PCR” value was “had the desired gene modification”. Further, in the series on CFBE cells at ALI, the “Isc (short circuit current), cAMP stimulated” value is listed as “minimum Isc”.
